This note sets out measurements from patent publication US8535672B2, “Broad-spectrum in-vivo effective superantigen toxin antagonists based on the interaction between CD28 and the superantigen and uses thereof” (Yissum Research Development of the Hebrew University of …, priority 2003, dated 2013).

Experiment [1] deals with T1, PD-1 (Homo sapiens, UniProt Q15116).
T1 construct: comprise the extracellular 37-162, 19-152, 21-141, 24-167 and 20-239 amino acid, respectively, of the mature human ligands domain; purchased R&D Systems; host or cells: mouse myeloma NS0 cells
T1 sequence (Q15116 24-167): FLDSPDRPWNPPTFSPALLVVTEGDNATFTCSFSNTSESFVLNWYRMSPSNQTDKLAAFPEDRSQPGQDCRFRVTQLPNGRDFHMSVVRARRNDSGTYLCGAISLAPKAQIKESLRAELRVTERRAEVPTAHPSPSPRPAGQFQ
It counts as binding.

Experiment [2] deals with IL2 and IFN-γ mRNA induced by SEB in human PBMC. It counts as cell-based.
The target in experiment [3] is T2, soluble CD28 (sCD28) (Homo sapiens, UniProt P10747).
T2 construct: comprise the extracellular 37-162, 19-152, 21-141, 24-167 and 20-239 amino acid, respectively, of the mature human ligands domain; purchased R&D Systems 342-CD; host or cells: mouse myeloma NS0 cells
It counts as binding.

In experiment [4] the test system is IL10 and IL4 induced by SEB in human PBMC. It counts as cell-based.
The test system of experiment [5] is IL2 and IFN-γ mRNA induced by αCD28, αCD3, sB7-2 in human PBMC. It counts as cell-based.
The subject of experiment [6] is IL10 in human PBMC. It counts as cell-based.
The target of experiment [7] is T3, SEB (Staphylococcus aureus, UniProt P01552). Further details: species or system BALB/c mice. The note with it: mouse.
Experiment [8] deals with T4, sCD28 (Homo sapiens, UniProt P10747).
T4 construct: comprise the extracellular 37-162, 19-152, 21-141, 24-167 and 20-239 amino acid, respectively, of the mature human ligands domain; purchased R&D Systems 342-CD; host or cells: mouse myeloma NS0 cells
It counts as binding.

Experiment [9] has as its target T4, sCD28. The experiment in a line: ELISA: binding of anti-CD28 to immobilized sCD28 in presence of antagonist peptide. As to conditions: 1,000-fold diluted anti-CD28, p14A from 0.1 μg per ml. Here is the method: An amount of 250 ng sCD28 was immobilized on an ELISA microtiter plate and binding of anti-CD28 at the two indicated dilutions (corresponding to 250 and 125 ng/ml, respectively) was measured by use of a secondary antibody coupled to alkaline phosphatase, recording absorbency at 450 nm. p14A was either absent (Control) or present at the indicated concentrations. Abbreviations: bin. (binding), Un. (units), cont. (control), ml (milliliter), μg (microgram), α (anti).
Yet another assay was devised to show a direct interaction between antagonist peptide and sCD28. The inventors developed an enzyme-linked immune sorbent assay (ELISA) in which sCD28 is immobilized in the wells of a microtiter ELISA plate and binding of anti-CD28 is measured by use of a secondary antibody coupled to alkaline phosphatase. It is seen in FIG. 16 that binding of 1,000-fold diluted anti-CD28 to the plate was inhibited by p14A even at a concentration of only 0.1 μg per ml. […] Thus, antagonist peptide p14A is a powerful inhibitor of the interaction between anti-CD28 and sCD28.
For orientation: In an ELISA, binding on a coated surface is turned into a signal by an enzyme label.

The target in experiment [10] is T5, sCD28/sB7-2 (Homo sapiens, UniProt P10747).
T5 construct: comprise the extracellular 37-162, 19-152, 21-141, 24-167 and 20-239 amino acid, respectively, of the mature human ligands domain; purchased R&D Systems 342-CD (sCD28); host or cells: mouse myeloma NS0 cells
It counts as binding.

For experiment [11], the system named is p14A. It counts as binding.
The subject of experiment [12] is IL2 and IFN-γ mRNA in human PBMC. It counts as cell-based.
Experiment [13] concerns the target T3, SEB.
Experiment [14] concerns the target T3, SEB. The source holds these as a separate data set.

Entries after “also recorded” stand apart in the source; their conditions may differ. Non-standard residues stand in square brackets, D forms with d. Residues, ends and D or L forms follow the SMILES beside them. No end group written: not given here.

As for `CC(C)C[C@H](NC(=O)[C@H](CCC(=O)O)NC(=O)[C@H](CCC(N)=O)NC(=O)[C@@H](NC(=O)[C@@H](NC(=O)[C@H](C)NC(=O)[C@H](CCCCN)NC(=O)[C@H](CCCCN)NC(=O)[C@H](CCCCN)NC(=O)[C@H](CC(N)=O)NC(=O)[C@H](Cc1ccc(O)cc1)NC(=O)[C@@H](N)CS)[C@@H](C)O)C(C)C)C(=O)N[C@@H](CC(=O)O)C(=O)N[C@@H](CS)C(=O)O` [p12C] (H-CYNKKKATVQELDC-OH), the “binding of PD-1 to immobilized peptide” value in experiment [1] is “failed to bind significantly”. Besides, the “antagonism of SEB-mediated induction of IL2 and IFN-γ mRNA” value (shortened to “antagonism”) in experiment [2] is “as active as p14A”.

With “daV Q Y N K K K A T V Q E L Dda ([dA]VQYNKKKATVQELD[dA]) [p14A]”, in [3], the “binding to CD28 (SPR)” value is on record as “bind directly to CD28”. In addition, the “antagonism” value in experiment [2] is recorded as “blocked”. Further, the “effect on SEB-mediated induction of IL10 / IL4 (Th2 response)” value in [4] is “left induction of the Th2-type cytokines IL-10 and IL-4 intact”. Further, in experiment [5], the “effect on induction of IFN-γ mRNA by anti-CD3 alone” value is “did not inhibit”, the “effect on induction of IFN-γ mRNA by anti-CD3 with sB7-2” value is “abrogated”, the “effect on induction of IFN-γ mRNA by sB7-2 alone” value was “shifted the induction by sB7-2 alone to earlier times; also recorded: stimulated induction significantly” and the “effect on induction of IL2/IFN-γ mRNA by αCD28 alone” value is listed as “blocked”. The “effect on induction of IL2/IFN-γ mRNA by αCD28 and αCD3 combined” value in experiment [5] was “eliminated virtually in full”. Also, in experiment [6], the “effect on induction of IL10 by αCD28/αCD3” value is “resistant” and the “effect on induction of IL-10 by sB7-2/anti-CD3” value is listed as “largely resistant”. For the same molecule, in experiment [7], the “molar excess (ratio) over SEB at which protective in vivo” value is recorded as 12 fold. In addition, the “protection from lethal SEB challenge” value in experiment [7] (in vivo) is listed as 70%. In experiment [8], the “effect on plasmon resonance signal for binding of anti-CD28 to sCD28” value was “reduced”. In [9], the “effect on binding of anti-CD28 to sCD28 (ELISA)” value is given as “inhibited”. For the same molecule, in [10], the “effect on plasmon resonance signal for binding of sCD28 to sB7-2” value is “enhanced significantly”.

Turning to “sCD28: recombinant soluble CD28: extracellular domain of human CD28 fused to His6-tagged Fc of human IgG (R&D Systems 342-CD)”, in experiment [2], the “antagonism” value is on record as “dose-dependent manner”; the “inhibition of SEB induction of IFN-γ mRNA” value is listed as “about twenty fold”; the “inhibition of SEB induction of IL-2 mRNA” value is on record as 3.5 fold. Moreover, in experiment [5], the “effect on induction of IL2/IFN-γ mRNA by αCD28 alone” value was “inhibited”. In addition, in experiment [11], the “inhibition of anti-p14A Ab binding to p14A (ELISA)” value is “over 90%”. For the same molecule, the “induction of Th1 cytokine mRNA by the substance alone (agonist activity)” value in [12] is recorded as “did not induce IFN-γ mRNA”. In [13], the “inhibition of binding of anti-SEB Ab to SEB” value is 84% and the “reduction of anti-SEB binding to SEB” value is on record as “about 5 fold”. Also, in experiment [14], the “competition of anti-SEB Ab binding to SEB (ELISA)” value was “about 75%”.
